{"source": "patent US9351952B2", "about": "“Use of hesperetin” (NATURAL MEDICINE INSTITUTE OF ZHEJIANG YANGSHENGTANG CO., …, priority 2010, dated 2016)", "tested_on": "skin microcirculation in domestic rabbits", "assay": "Effect of topical application of hesperetin on skin microcirculation by Laser Doppler Flowmetery", "assay_type": "in vivo, Oryctolagus cuniculus", "details": "smearing the backs of rabbits with samples of different concentrations", "excerpt": "The experimental method for promoting microcirculation: Male Oryctolagus cuniculus weighted 3.0-3.5 kg were used. After shaving the hair on the back of the Oryctolagus cuniculus, 10 points for testing blood flow were marked with a marker pen on the hairless skin of the rabbit, i.e. 5 points for each of the right side and the left side, and aorta was avoided when drawing the points. Before smearing the sample, the basic values of blood flow at the 10 points of rabbits of each experimental group were determined by Laser Doppler Flowmetery. […] 2% solution was orally administrated by a similar method in a volume 100 times compared to the volume used in the group wherein the 2% solution was administered by smearing. After administration, the blood flow value was determined every hour at the same point by Laser Doppler Flowmetery for 24 h, and the variation index of blood flow was calculated to evaluate the effect of hesperetin on the back blood of rabbits, wherein a higher variation index of blood flow indicates a better effect of promoting microcirculation. The experimental results were statistically analyzed by SPSS11.5 software, t-test was applied to the measured data to evaluate the experimental results. When P<0.1, the data may be regarded as statistically significant. In the results of Table 1, all the time points at with P<0.1 in the 24-h test were listed.", "data": [{"smiles": "COc1ccc([C@@H]2CC(=O)c3c(O)cc(O)cc3O2)cc1O", "note": "[Hesperetin]", "values": [{"measurement": "blood flow in skin microvessels as compared to the blank side", "value": "significantly enhanced"}]}]}
